These results are taken from ChEMBL document CHEMBL1129847, “2-[(substituted)phenyl]-5-[1-(2-phenylazacycloheptyl)methyl]-1H-pyrroles with high affinity and selectivity for the dopamine D3 receptor” (Bioorg Med Chem Lett, 1997).

The target of test [1] is D(3) dopamine receptor (Homo sapiens, UniProt P35462). The test can be described thus: Ability to displace [125I]-sulpiride from human Dopamine receptor D3, expressed in CHO cells. Type of test: cell-based.
The target in test [2] is D(2) dopamine receptor (Homo sapiens, UniProt P14416). The test can be described thus: Ability to displace [125I]sulpiride from human Dopamine receptor D2, expressed in CHO cells. Type of test: cell-based.
D(2) dopamine receptor, sequence (P14416 whole entry): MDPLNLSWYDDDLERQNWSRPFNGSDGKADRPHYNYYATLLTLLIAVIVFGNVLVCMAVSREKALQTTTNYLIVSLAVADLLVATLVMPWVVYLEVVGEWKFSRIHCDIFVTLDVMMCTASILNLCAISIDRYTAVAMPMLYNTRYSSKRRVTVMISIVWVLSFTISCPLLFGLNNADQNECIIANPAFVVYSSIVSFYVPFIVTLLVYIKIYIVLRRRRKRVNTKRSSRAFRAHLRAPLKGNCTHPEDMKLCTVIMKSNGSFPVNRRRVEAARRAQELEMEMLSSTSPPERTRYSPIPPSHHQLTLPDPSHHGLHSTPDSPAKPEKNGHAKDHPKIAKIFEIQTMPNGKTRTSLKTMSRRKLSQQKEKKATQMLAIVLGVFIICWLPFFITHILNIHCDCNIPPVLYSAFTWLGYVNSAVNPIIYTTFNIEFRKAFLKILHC
Test [3] deals with Dopamine receptors; D2 & D3 (Homo sapiens) (UniProt P14416+P35462). The test can be described thus: Ratio of human dopamine D3 receptor to that of human dopamine D2 receptor was evaluated. Type of test: protein assay.

D(3) dopamine receptor, sequence (P35462 whole entry): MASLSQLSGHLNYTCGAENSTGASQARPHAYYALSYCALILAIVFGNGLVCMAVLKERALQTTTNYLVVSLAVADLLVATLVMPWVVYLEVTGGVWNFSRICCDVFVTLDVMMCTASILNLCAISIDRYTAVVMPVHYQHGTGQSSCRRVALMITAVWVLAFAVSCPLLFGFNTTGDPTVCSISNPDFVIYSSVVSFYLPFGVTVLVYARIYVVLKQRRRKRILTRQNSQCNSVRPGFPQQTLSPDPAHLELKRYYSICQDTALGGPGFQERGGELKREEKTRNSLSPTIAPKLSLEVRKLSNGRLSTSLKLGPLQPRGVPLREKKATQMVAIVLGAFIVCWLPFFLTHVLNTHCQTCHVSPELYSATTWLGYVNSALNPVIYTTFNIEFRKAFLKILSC

In the case of `CCN(Cc1ccccc1)S(=O)(=O)c1ccc(OC)c(-c2ccc(CN3CCCCCC3c3ccccc3)[nH]2)c1` (stereo unspecified), the Ki in test [1] was 6.31 nM; in test [2], 501 nM. Further, in test [3], the Selectivity worked out at 80.

Regarding `COc1ccc(S(=O)(=O)Oc2ccccc2)cc1-c1ccc(CN2CCCCCC2c2ccccc2)[nH]1` (stereo unspecified), the figures for the Ki in test [1] and in test [2] were 10 nM and 1000 nM, respectively. In test [3], the Selectivity stood at 100.

Turning to `COc1ccc(S(=O)(=O)N(C)c2ccccc2)cc1-c1ccc(CN2CCCCC[C@H]2c2ccccc2)[nH]1`, the inhibitory constant (Ki) in test [1] is 15.8 nM; in test [2], 1580 nM. The Selectivity in test [3] is 100.

Take `COc1ccc(S(=O)(=O)N2CCc3ccccc3C2)cc1-c1ccc(CN2CCCCCC2c2ccccc2)[nH]1` (stereo unspecified): the Ki in test [1] was 2 nM; in test [2], 200 nM. The Selectivity in test [3] amounted to 100.

Regarding `COc1ccc(S(=O)(=O)N(C)C)cc1-c1ccc(CN2CCCCCC2c2ccccc2)[nH]1` (stereo unspecified), the inhibitory constant (Ki) in test [1] is 2 nM; in test [2], 100 nM. Further, in test [3], the Selectivity was found to be 50.

As to `COc1ccc(S(=O)(=O)N2CCCc3ccccc32)cc1-c1ccc(CN2CCCCCC2c2ccccc2)[nH]1` (stereo unspecified), the Ki in test [1] was 6.31 nM; in test [2], 1000 nM. Also, the Selectivity in test [3] came to 150.

`COc1ccc(S(=O)(=O)N(C)c2ccccc2)cc1-c1ccc(CN2CCCCC[C@@H]2c2ccccc2)[nH]1`: the inhibition constant (Ki) in test [1] was 3.98 nM; in test [2], 501 nM. Besides, the Selectivity in test [3] amounted to 125.

Regarding `CCS(=O)(=O)c1ccc(OC)c(-c2ccc(CN3CCCCC[C@H]3c3ccccc3)[nH]2)c1`, the inhibition constant Ki in test [1] was 3.98 nM; in test [2], 100 nM. Moreover, in test [3], the Selectivity is 25.

With `CCS(=O)(=O)c1ccc(OC)c(-c2ccc(CN3CCCCC[C@@H]3c3ccccc3)[nH]2)c1`, the Ki in test [1] was 0.794 nM; in test [2], 25.1 nM. Moreover, in test [3], the Selectivity came to 30.

`COc1ccc(S(N)(=O)=O)cc1-c1ccc(CN2CCCCCC2c2ccccc2)[nH]1` (stereo unspecified): the figures for the inhibition constant Ki in test [1] and in test [2] were 39.8 nM and 398 nM, respectively. Besides, the Selectivity in test [3] worked out at 10.

Turning to `COc1ccc(S(=O)(=O)Cc2ccccc2)cc1-c1ccc(CN2CCCCCC2c2ccccc2)[nH]1` (stereo unspecified), the inhibitory constant (Ki) in test [1] is 3.98 nM; in test [2] it was 126 nM. Also, the Selectivity in test [3] amounted to 30.

On to `COc1ccc(S(=O)(=O)C(C)C)cc1-c1ccc(CN2CCCCCC2c2ccccc2)[nH]1` (stereo unspecified), for which the figures for the Ki in test [1] and in test [2] were 5.01 nM and 200 nM, respectively. For the same molecule, the Selectivity in test [3] was found to be 40.

As for `COc1ccc(S(=O)(=O)Nc2ccccc2)cc1-c1ccc(CN2CCCCCC2c2ccccc2)[nH]1` (stereo unspecified), the Ki in test [1] was 79.4 nM; in test [2], 631 nM. Further, the Selectivity in test [3] was determined as 8.

Turning to `COc1ccc(S(=O)(=O)N2CCOCC2)cc1-c1ccc(CN2CCCCCC2c2ccccc2)[nH]1` (stereo unspecified), the Ki in test [1] was 1.58 nM; in test [2], 100 nM. Besides, the Selectivity in test [3] is 60.

Regarding `CCS(=O)(=O)c1ccc(OC)c(-c2ccc(CN3CCCCCC3c3ccccc3)[nH]2)c1` (stereo unspecified), in test [3], the Selectivity amounted to 30.

`COc1ccc(S(=O)(=O)N(C)c2ccccc2)cc1-c1ccc(CN2CCCCCC2c2ccccc2)[nH]1` (stereo unspecified): the Ki in test [1] is 6.31 nM; in test [2], 631 nM. For the same molecule, the Selectivity in test [3] worked out at 100.

The Ki is a measure of affinity in units of concentration, obtained from inhibition or displacement.
